According to patent publication US20250213701A1, “MEDICAMENT FOR TREATING HUMAN TUMOR BASED ON ERF3A-TARGETING PROTEOLYSIS MECHANISM” (SUZHOU DEGEN BIO-MEDICAL CO., LTD., priority 2022, published 2025):

Experiments:
Type in all cases: cell-based
SRD5A3 = biological target: T1, SRD5A3 (Homo sapiens, UniProt Q9H8P0); experiment: Western blot assay in 22Rv1 cells: SRD5A3; settings: different concentrations at 24 h, and 3 nM at different time points (FIGS. 7 and 8)
T1 construct: The downregulation of SRD5A3 and GSPT1 (eRF3a) proteins in PC-3 and HepG2 cells by C59; endogenous in cells; host or cells: 22Rv1, PC-3, HepG2
T1 sequence (Q9H8P0 1-318): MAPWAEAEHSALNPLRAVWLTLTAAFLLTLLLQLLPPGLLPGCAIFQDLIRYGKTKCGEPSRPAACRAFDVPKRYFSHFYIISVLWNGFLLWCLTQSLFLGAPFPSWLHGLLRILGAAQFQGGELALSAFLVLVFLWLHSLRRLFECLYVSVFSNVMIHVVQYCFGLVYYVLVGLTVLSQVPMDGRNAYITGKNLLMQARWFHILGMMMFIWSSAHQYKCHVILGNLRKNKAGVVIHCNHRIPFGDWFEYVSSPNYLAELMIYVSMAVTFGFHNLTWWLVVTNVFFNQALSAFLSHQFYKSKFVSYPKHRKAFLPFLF
From the text: Example 84: Western Blot Assay of Compound C59 in 22Rv1, PC-3, and HepG2 Cells
(1) Materials: 22Rv1, PC-3, and HepG2 cell, anti-SRD5A1 antibody (ab167606), anti-SRD5A2 antibody (ab124877), anti-SRD5A3 antibody (PA5-107029), anti-androgen receptor (AR) antibody (CST, No. 5153), anti-GSPT1 antibody (Abcam, ab234433), anti-GADPH antibody (CST, No. 5174), anti-c-Myc antibody (CST, No. 8583), anti-α-tublin antibody (CST, No. 2125), anti-rabbit IgG, HRP-linked antibody (CST, No. 7074), electrophoresis device and membrane transfer device (LIUYI, BEIJING; DYCZ-24DN)
Cell seeding: 22Rv1 (Cell Bank of the Chinese Academy of Sciences, TCHu100), PC-3 (Cell Bank of the Chinese Academy of Sciences, SCSP-532) and HepG2 cells (Cell Bank of the Chinese Academy of Sciences, TCHu72) were subcultured and trypsinized to prepare 6×10^5 cells/mL suspensions, seeded on 6-well plates (3 mL/well), and cultured overnight in a cell incubator at 5% CO2 and 37° C. […]
Protein quantification: The protein was quantified using a BCA protein quantification kit. […]
Western immunoblot assay (or Western blot, WB): SDS-PAGE gel at a proper concentration was prepared according to the molecular weight of the target protein: for example, the concentration of the separation gel was 8% and the concentration of the stacking gel was 5%. The loading volume was adjusted according to the protein quantification results. […]

U251 cells = experiment: Anti-proliferative toxicity of C63 in tumor cell lines (CCK8): U251; settings: Homo sapiens, U-251, 72 h, 3 days, read-out: Inhibition rate
Experimental: (§1) Example 83: Detection of Anti-Proliferative Toxicity of C63 in Some Tumor Cell Lines
U251 cells (purchased from the Cell Bank of the Chinese Academy of Sciences, Cat. No. TCHu58) were subcultured in a culture medium (DMEM medium+1% penicillin-streptomycin dual-antibiotic solution+10% fetal bovine serum) in an incubator at 5% carbon dioxide and 37° C.
U251 cells were seeded at 2000 cells/well (90 μL) on a 96-well plate and cultured for 24 h.
(§2) 10 mM compound stock solutions were prepared in DMSO.
(§3) The compound stock solution was diluted with DMSO to give DMSO solutions 1-9 at concentrations of 0 μM, 2500 μM, 500 μM, 100 μM, 20 μM, 4 μM, 0.8 μM, 0.16 μM, and 0.032 μM.
(§4) 2 μL of each of solutions 1-9 was added to 98 μL of the medium to give mixed solutions 11-19 of the compound and the medium.
(§5) 10 μL of each of solutions 11-19 was added to the above cell seed solution to give a total volume of 100 μL (90 μL+10 μL).
(§6) The concentrations of the compound in the wells were 0 μM, 5.0 μM, 1.0 μM, 0.2 μM, 0.04 μM, 0.008 μM, 0.0016 μM, 0.00032 μM, and 0.000064 μM. All concentrations were in triplicate.
(§7) After the above-treated cells were cultured for 3 days, 10 μL of the CCK8 solution (DOJINDO, Cat. No. PF725) was added to each well. The plate was incubated in an incubator at 37° C. for 1-4 h and then detected on a microplate reader for the reading at 450 nm.

DLD-1 cells = experiment: Anti-proliferative toxicity of C63 in tumor cell lines (CCK8): DLD-1; settings: Homo sapiens, 72 h, 3 days, read-out: Inhibition rate
Experimental: as §1
DLD-1 cells (purchased from the Cell Bank of the Chinese Academy of Sciences, Cat. No. TCHu134) were subcultured in a culture medium (RPMI-1640 medium+1% penicillin-streptomycin dual-antibiotic solution+10% fetal bovine serum) in an incubator at 5% carbon dioxide and 37° C.
DLD-1 cells were seeded at 2000 cells/well (90 μL) on a 96-well plate and cultured for 24 h.
as §2, §3, §4, §5, §6, §7

downregulation of SRD5A3 protein (Western blot) (SRD5A3)	Structure (SMILES)	inhibition at 64 pM (U251 cells; 0.000064 μM) [%]	inhibition at 0.00032 µM (U251 cells; 0.000320 μM) [%]	inhibition at 0.0016 µM (U251 cells; 0.001600 μM) [%]	inhibition at 0.008 µM (U251 cells; 0.008000 μM) [%]	inhibition at 0.04 µM (U251 cells; 0.040000 μM) [%]	inhibition at 0.2 µM (U251 cells; 0.200000 μM) [%]	inhibition at 1 µM (U251 cells; 1.000000 μM) [%]	inhibition at 5 µM (U251 cells; 5.000000 μM) [%]	inhibition at 64 pM (DLD-1 cells; 0.000064 μM) [%]	inhibition at 0.00032 µM (DLD-1 cells; 0.000320 μM) [%]	inhibition at 0.0016 µM (DLD-1 cells; 0.001600 μM) [%]	inhibition at 0.008 µM (DLD-1 cells; 0.008000 μM) [%]	inhibition at 0.04 µM (DLD-1 cells; 0.040000 μM) [%]	inhibition at 0.2 µM (DLD-1 cells; 0.200000 μM) [%]	inhibition at 1 µM (DLD-1 cells; 1.000000 μM) [%]	inhibition at 5 µM (DLD-1 cells; 5.000000 μM) [%]
downregulation	C[C@]12C=CC(=O)N[C@@H]1CC[C@@H]1[C@@H]2CC[C@]2(C)[C@@H](C(=O)Nc3cccc(N[C@@H]4CCC[C@@H](Nc5cccc6c5C(=O)N(C5CCC(=O)NC5=O)C6=O)C4)c3)CC[C@@H]12 (stereo partly drawn) [C59, N-(3-(N—(N-(4-(2-(3-(2,6-dioxopiperidine))-isoindole-1,3-dione))-1R,3R-cyclohexanediamine))phenyl)-3-oxo-4-aza-5α-androst-1-ene-17β-carboxamide]	–	–	–	–	–	–	–	–	–	–	–	–	–	–	–	–
–	C[C@]12C=CC(=O)N[C@@H]1CC[C@@H]1[C@@H]2CC[C@]2(C)[C@@H](C(=O)Nc3cccc(N[C@@H]4CCC[C@@H](Nc5cccc6c5C(=O)N([C@H]5CCC(=O)NC5=O)C6=O)C4)c3)CC[C@@H]12 [C63, N-(3-(N—(N-(4-(2-(3S-(2,6-dioxopiperidine))-isoindole-1,3-dione))-1R,3R-cyclohexanediamine))phenyl)-3-oxo-4-aza-5α-androst-1-ene-17β-carboxamide]	22	21.7	53.4	67.8	69	71.7	72.2	72.2	0.83	7.21	40.5	67.5	76.3	78.3	79.7	83.1
